Results published in US12029803B2, “Personal cleansing compositions, methods and uses” (The Procter & Gamble Company, priority 2021, dated 2024).
“Also recorded” adds a separate entry of the source.

Assay: Observations of appearance, structure and phase separation (Centrifuge Test)
Format: physicochemical
Settings: sulfate

CCCCCCCCCCCCCOS(=O)(=O)[O-].[Na+] [non-ethoxylated sodium tridecyl sulfate, sodium tridecyl sulfate]
lamellar phase formation of personal cleansing compositions comprising the surfactant: did not form lamellar phase; also recorded: unable to produce a stable lamellar phase
